Experiments:
[1] = target: T1, Corticotropin-releasing factor receptor 1 (Homo sapiens, UniProt P34998)
T1 sequence (P34998 whole entry): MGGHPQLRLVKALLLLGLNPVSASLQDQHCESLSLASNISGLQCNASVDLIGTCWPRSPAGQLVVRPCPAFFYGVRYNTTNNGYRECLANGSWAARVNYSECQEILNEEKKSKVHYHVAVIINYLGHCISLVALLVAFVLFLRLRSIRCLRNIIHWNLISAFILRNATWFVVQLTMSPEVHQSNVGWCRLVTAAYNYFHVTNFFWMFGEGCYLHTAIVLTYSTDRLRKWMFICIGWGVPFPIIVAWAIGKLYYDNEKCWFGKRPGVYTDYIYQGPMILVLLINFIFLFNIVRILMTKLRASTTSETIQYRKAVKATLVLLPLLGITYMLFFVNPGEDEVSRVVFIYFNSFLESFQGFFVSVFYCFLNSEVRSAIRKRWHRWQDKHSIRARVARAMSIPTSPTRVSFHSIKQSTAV

Substance-P receptor = Substance-P receptor (Homo sapiens, UniProt P25103)
Sequence of Substance-P receptor (P25103 whole entry): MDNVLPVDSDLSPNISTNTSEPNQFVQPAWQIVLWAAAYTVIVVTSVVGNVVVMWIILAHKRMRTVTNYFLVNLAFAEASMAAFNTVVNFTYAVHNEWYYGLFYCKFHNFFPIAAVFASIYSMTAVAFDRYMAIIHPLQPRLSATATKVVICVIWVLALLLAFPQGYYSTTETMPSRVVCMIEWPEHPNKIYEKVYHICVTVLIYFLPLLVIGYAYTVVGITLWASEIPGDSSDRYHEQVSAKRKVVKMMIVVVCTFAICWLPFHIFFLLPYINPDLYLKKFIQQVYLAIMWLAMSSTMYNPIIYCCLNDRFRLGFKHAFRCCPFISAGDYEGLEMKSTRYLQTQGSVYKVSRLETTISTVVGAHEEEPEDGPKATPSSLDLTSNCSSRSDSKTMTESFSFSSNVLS

[2] = target: T2, Alpha-1A adrenergic receptor (Homo sapiens, UniProt P35348)
T2 sequence (P35348 whole entry): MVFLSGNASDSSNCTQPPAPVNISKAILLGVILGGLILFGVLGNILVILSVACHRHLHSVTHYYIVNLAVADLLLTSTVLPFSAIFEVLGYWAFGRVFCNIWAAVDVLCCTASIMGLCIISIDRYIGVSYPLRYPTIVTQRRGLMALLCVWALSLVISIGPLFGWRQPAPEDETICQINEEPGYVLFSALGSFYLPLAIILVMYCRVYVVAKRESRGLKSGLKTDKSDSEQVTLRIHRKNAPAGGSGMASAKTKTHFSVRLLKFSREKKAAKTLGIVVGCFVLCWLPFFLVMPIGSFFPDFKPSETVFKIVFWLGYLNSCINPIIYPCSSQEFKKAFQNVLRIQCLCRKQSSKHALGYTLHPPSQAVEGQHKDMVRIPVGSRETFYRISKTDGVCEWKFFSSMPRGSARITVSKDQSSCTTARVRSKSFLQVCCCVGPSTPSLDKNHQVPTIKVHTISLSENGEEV

D(4) dopamine receptor = target: T3, D(4) dopamine receptor (Homo sapiens, UniProt P21917)
T3 sequence (P21917 whole entry): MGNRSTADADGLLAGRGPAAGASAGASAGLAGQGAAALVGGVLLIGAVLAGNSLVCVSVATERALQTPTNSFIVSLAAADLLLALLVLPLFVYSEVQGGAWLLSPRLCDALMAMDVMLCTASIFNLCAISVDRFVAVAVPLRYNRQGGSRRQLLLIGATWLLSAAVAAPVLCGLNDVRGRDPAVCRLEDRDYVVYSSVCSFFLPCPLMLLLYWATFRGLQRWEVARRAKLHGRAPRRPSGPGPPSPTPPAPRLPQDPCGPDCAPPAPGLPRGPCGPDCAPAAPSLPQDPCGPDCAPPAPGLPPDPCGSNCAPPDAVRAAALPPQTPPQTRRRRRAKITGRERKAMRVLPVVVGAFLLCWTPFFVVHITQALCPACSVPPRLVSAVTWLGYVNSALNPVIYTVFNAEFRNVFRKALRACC

[3] = target: T4, Neuropeptide Y receptor type 2 (Homo sapiens, UniProt P49146)
T4 sequence (P49146 whole entry): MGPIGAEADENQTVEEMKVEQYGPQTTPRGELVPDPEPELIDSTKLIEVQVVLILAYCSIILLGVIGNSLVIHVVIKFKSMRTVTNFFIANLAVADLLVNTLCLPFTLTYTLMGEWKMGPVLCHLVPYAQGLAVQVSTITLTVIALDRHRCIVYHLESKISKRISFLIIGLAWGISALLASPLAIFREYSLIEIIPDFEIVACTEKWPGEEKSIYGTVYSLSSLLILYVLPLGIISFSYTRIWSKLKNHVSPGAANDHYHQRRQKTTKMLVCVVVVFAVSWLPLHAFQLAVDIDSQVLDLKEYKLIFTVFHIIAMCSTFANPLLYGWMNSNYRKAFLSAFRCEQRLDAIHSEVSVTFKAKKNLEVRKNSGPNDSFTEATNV

Thromboxane A2 receptor = target: T5, Thromboxane A2 receptor (Homo sapiens, UniProt P21731); assay type: functional, cell-based
T5 sequence (P21731 whole entry): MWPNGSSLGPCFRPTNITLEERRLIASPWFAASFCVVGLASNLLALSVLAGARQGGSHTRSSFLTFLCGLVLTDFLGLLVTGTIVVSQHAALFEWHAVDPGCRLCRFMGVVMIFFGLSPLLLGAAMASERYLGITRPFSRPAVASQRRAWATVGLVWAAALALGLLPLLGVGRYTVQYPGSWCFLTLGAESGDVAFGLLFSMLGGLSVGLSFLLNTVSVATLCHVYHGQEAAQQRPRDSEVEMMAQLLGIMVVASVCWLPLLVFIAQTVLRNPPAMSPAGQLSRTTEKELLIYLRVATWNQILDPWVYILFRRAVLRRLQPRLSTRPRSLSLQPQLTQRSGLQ

[4] = target: T6, Muscarinic acetylcholine receptor M2 (Homo sapiens, UniProt P08172)
T6 sequence (P08172 whole entry): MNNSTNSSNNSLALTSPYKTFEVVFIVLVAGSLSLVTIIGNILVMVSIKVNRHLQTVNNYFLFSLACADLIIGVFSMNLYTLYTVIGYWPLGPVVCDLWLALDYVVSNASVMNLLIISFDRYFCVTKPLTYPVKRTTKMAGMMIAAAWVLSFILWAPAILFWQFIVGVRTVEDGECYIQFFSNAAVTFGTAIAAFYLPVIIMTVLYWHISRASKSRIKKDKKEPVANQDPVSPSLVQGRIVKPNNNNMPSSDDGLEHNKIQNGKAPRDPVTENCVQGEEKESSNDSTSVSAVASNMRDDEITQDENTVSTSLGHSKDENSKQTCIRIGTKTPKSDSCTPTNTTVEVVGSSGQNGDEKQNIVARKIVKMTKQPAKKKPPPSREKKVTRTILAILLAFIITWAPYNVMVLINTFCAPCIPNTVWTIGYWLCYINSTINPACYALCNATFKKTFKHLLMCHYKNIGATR

Prothrombin = Prothrombin (Homo sapiens, UniProt P00734); assay type: functional
Histamine H3 receptor = Histamine H3 receptor (Homo sapiens, UniProt Q9Y5N1)
Sequence of Histamine H3 receptor (Q9Y5N1 whole entry): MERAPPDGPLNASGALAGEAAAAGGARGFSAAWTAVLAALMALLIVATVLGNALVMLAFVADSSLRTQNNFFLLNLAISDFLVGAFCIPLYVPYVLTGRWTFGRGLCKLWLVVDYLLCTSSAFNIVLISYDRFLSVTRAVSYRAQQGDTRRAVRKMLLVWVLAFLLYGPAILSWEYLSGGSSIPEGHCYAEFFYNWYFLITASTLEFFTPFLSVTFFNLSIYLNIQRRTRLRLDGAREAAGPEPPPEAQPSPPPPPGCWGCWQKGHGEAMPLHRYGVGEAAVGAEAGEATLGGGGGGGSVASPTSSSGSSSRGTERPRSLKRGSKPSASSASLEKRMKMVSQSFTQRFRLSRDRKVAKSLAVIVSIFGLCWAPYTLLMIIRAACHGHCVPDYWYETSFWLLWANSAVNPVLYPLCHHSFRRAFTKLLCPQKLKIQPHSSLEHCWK
Further: assay procedure not described here.

Compound | AC50 [1] | AC50 (Substance-P receptor) | AC50 [2] | AC50 (D(4) dopamine receptor) | AC50 [3] | AC50 (Thromboxane A2 receptor) | AC50 [4] | AC50 (Prothrombin) | AC50 (Histamine H3 receptor)
Cc1c(OCC(F)(F)F)ccnc1C[S+]([O-])c1nc2ccccc2[nH]1 (stereo not drawn) [LANSOPRAZOLE] | > 30 µM | 17.2 µM | > 10 µM | 2.11 µM | > 30 µM | – | – | – | –
CO[C@]12C[C@@H](COC(=O)c3cncc(Br)c3)CN(C)[C@@H]1Cc1cn(C)c3cccc2c13 [NICERGOLINE] | – | – | – | – | – | > 30 µM | 7.93 µM | > 30 µM | 7.91 µM
COc1cccc(C2(O)CCCCC2CN(C)C)c1 (stereo not drawn) [TRAMADOL] | > 30 µM | > 10 µM | > 10 µM | > 10 µM | > 30 µM | – | – | – | –
THIMEROSAL | – | – | – | – | – | > 30 µM | > 30 µM | > 30 µM | > 30 µM
